Reference: patent US20160113895A1, “Novel Use of Adapalene in Treating Esophageal Cancer and Gastrointestinal Stromal Tumor” (Biodelight Biotech Inc., priority 2013, published 2016)
pIC50: −log10 of the molar value.

Experiments:
HCC827 implanted tumors = experiment: Subcutaneous HCC827 xenograft model, groups 3a-3c, o.p.; settings: for Tumor inhibition rate (%): HCC827, o.p. once daily, NSL-8 70 mpk, Tarceva 20 mpk
Protocol: (§1) The antitumor efficacy of the drug lead nsl-8 searched was studied using the subcutaneous xenografted A549 and HCC827 lung cancer tumor models in vivo. […] Mice were maintained in individual ventilated cages (IVC, max. 4 mice/cage) at constant temperature and humidity. Animal weights were determined three times (Monday, Wednesday and Friday) for groups 1a and 1b or two times (Monday and Thursday) for groups 2a-2c and 3a-3c animals. Animal behaviour was monitored daily.
(§2) On day 0, either 2×10^6 A549 or 2×10^6 HCC827 tumor cells in 100 μL PBS were implanted into the subcutaneous space of the left flank of all corresponding BALB/c nude and SCID mice, respectively. In the following, tumor sizes were determined by caliper measurement. Tumor sizes were calculated according to the formula W^2×Lg/2 (Lg=length and W=the perpendicular width of the tumor, L>W). On day 48 or 30, after mean tumor volumes had reached approx. 100 mm^3, the corresponding tumor-bearing animals were randomized into 2 groups of 8 (A549 model: groups 1a and 1b) or 10 animals (A549 model: groups 2a and 2b) according to tumor sizes. On day 24 or 28, after mean tumor volumes had reached approx. 100 mm^3, the corresponding tumor-bearing animals were randomized into 2 groups of 10 animals (HCC827 model: groups 3a and 3b) according to tumor sizes. […] The percentage of tumor growth inhibition (TGI) was calculated using the following formula: […]
(§3) where T and C represent the mean tumor volume of the treatment and the control group, respectively.
(§4) The solution was aliquoted into several 15 ml sterile centrifuge tubes in 650 μl quantity per tube and then stored frozen at −80° C. until use. […] Animals of group 1b received 40 mg/kg nsl-8 dosage solution once daily through i.p. route on days 48-52 and 62-66, while those of groups 2b and 3b received 70 mg/kg nsl-8 dosage solution once daily through o.p. route on days 1-14 (group 2b) and days 1-14 (group 3b), respectively (Table 4).
(§5) Groups 1a and 1b (A549 model) were terminated on day 69, while groups 2a-2c (A549 model) and 3a-3c (HCC827 model) were terminated on day 15. At necropsy, animals were killed by cervical dislocation. Primary tumor weights and volumes were determined. The tumor volume and weight were analysed using descriptive data analysis (Mean, SEM, Median). Statistical analysis of efficacy data was performed using the unpaired t-test. All the data analyses were performed using GraphPad Prism 5 from GraphPad Software, Inc., San Diego, USA.
(§6) The serum level of blood urea nitrogen (BUN) was measured for assessing the renal function while those of alanine aminotransferase (ALT) and aspartate aminotransferase (AST) were measured using Ektachem DT system (Johnson & Johnson Clinical Diagnostics) for assessing the liver function. The EDTA treated anticoagulated blood samples were also collected for making a complete peripheral blood count by using a Hematology Analyzer (Sysmex, XT-1800i).
(§7) For this study, 0.161 ml nsl-8 stock solution made in DMSO was mixed with 1.339 ml 0.9% w/v saline so that the volume of a final dosage solution prepared to feed an animal was 1.5 ml and containing 10% DMSO. Therefore, both administration routes and vehicles used in treating groups 2a-2b and 3a-3b animals were quite different from that used in treating groups 1a-1b animals.

A549 implanted tumors = experiment: Subcutaneous A549 xenograft model, groups 2a-2c, o.p.; settings: for Tumor inhibition rate (%): A549, o.p. once daily, Tarceva 20 mpk; for Tumor inhibition rate (%) / Body weight change (%): NSL-8 70 mpk; for Body weight change (%): A549 tumor-bearing mice, Tarceva 20 mpk o.p.
Protocol: as §1, §2, §3, §4, §5, §6, §7

H1299 = experiment: 3D cell proliferation assay (soft agar), H1299; format: cell-based, human; settings: Homo sapiens, NCI-H1299, 3D soft agar
Protocol: Drug nsl-8 was further subjected to a 3D cell proliferation assay for assessing its potential in inhibiting the growth of NSCLC tumors. The same four NSCLC cell lines used in 2D proliferation assays were grown in soft agar and the drug was added after the agar has solidified. The drug added cells were then incubated several days until colonies have formed in the solvent control. Subsequently, Alamar Blue which was a cell viability reagent was added and the corresponding fluorescence released was measured as an indirect quantification of colony growth in soft agar.
For each cell line, some 96 well culture plates were prepared. 100 μL of the soft agar bottom layer (0.6% final concentration in complete medium) was poured and left to solidify. 50 μL of the soft agar top layer (0.4% final concentration) containing the corresponding cells and cell number were then added on top, solidified and such 96 well plates were incubated overnight at 37° C. in 10% CO2. Next day, drugs were added at indicated final concentrations into the inner wells of the plate. Subsequently, the assays were incubated in cell culture incubators for the indicated period of time. Finally, the assays were developed using Alamar Blue and upon 3-5 h of incubation at 37 ° C. fluorescence intensity was determined (excitation: 560 nm, emission: 590 nm). […]

counts of neutrophils and lymphocytes (HCC827 implanted tumors; mouse, in vivo): increase | counts of red blood cells (HCC827 implanted tumors; mouse, in vivo): decrease | total white blood cells and platelets counted versus vehicle (HCC827 implanted tumors; mouse, in vivo): no significant difference | cell counts of white blood cell, red blood cell, or platelet versus vehicle (A549 implanted tumors; A549 model, peripheral blood at end-point, nsl-8 70 mg/kg, Tarceva 20 mg/kg o.p.): no significant difference | decline of body weight upon completion of the experiments (A549 implanted tumors; group 2b, 70 mg/kg daily o.p.): 2.0% | pIC50 (H1299): 4.89
Compound: COc1ccc(-c2ccc3cc(C(=O)O)ccc3c2)cc1C12CC3CC(CC(C3)C1)C2 [nsl-8, 6-[3-(1-adamantyl)-4-methoxyphenyl]-2-naphthalenecarboxylic acid]
Tumor inhibition rate (%) (HCC827 implanted tumors; Day 0): 0% | Tumor inhibition rate (%) (HCC827 implanted tumors; Day 3): 16.6% | Tumor inhibition rate (%) (HCC827 implanted tumors; Day 7): 13.8% | Tumor inhibition rate (%) (HCC827 implanted tumors; Day 10): 22.4% | Tumor inhibition rate (%) (HCC827 implanted tumors; Day 14): 28.7% | serum levels of BUN, ALT, and AST among treatment groups (HCC827 implanted tumors; mouse, in vivo): no significant difference | serum levels of BUN, ALT, and AST among treatment groups (A549 implanted tumors; A549 model, upon completion of the experiments): no significant difference | Tumor inhibition rate (%) (A549 implanted tumors; Day 0): 0% | Body weight change (%) (A549 implanted tumors; Day 0): 0% | Tumor inhibition rate (%) (A549 implanted tumors; Day 3): 7.1% | Body weight change (%) (A549 implanted tumors; Day 3): −1.9% | Tumor inhibition rate (%) (A549 implanted tumors; Day 7): 12.0% | Body weight change (%) (A549 implanted tumors; Day 7): −1.3% | Tumor inhibition rate (%) (A549 implanted tumors; Day 10): 17.8% | Body weight change (%) (A549 implanted tumors; Day 10): −2.6% | Tumor inhibition rate (%) (A549 implanted tumors; Day 14): 19.1% | Body weight change (%) (A549 implanted tumors; Day 14): −2.0%
